According to patent US10870638B2, “Pyridazinone compound or its salt, and herbicide containing it” (ISHIHARA SANGYO KAISHA, LTD., priority 2016, dated 2020):

Legend:
Assay type in all cases: in vivo
Conditions in all cases: active ingredient amount 31 g/ha, 14th day after application
rice (Oryza sativa L.) [1] = assay: Test Example 2: soil application on the day after sowing, growth inhibition rate on 14th day
In short: (§1)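 Pre-emergence soil spray on upland soil the day after sowing; wettable powder or emulsifiable concentrate diluted in water at 1,000 L/ha, dosed to prescribed active-ingredient amounts. Visual growth inhibition scored 14 days after application, 0 (untreated-equivalent) to 100 (complete kill).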

[2] = test system: prickly sida (Sida spinosa L.); assay: as above
In short: as §1

[3] = test system: barnyardgrass (Echinochloa crus-qalli L.); assay: as above
In short: as §1

[4] = test system: crabgrass (Digitaris sanquinalis L.); assay: as above
In short: as §1

corn (Zea mays L.) [5] = assay: as above
In short: as §1

[6] = test system: green foxtail (Setaria viridis L.); assay: as above
In short: as §1

[7] = test system: redroot pigweed (Amaranthus retroflexus L.); assay: as above
In short: as §1

[8] = test system: soybean (Glycine max Merr.); assay: as above
In short: as §1

[9] = test system: velvetleaf (Abutilon theophrasti MEDIC.); assay: as above
In short: as §1

[10] = test system: wheat (Triticum aestivum L.); assay: as above
In short: as §1

rice (Oryza sativa L.) [11] = assay: Test Example 1: foliar treatment, growth inhibition rate on 14th day
In short: (§2)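 Plants in upland soil were sprayed on the foliage at early leaf stages (wild oat 0.4–1.2, rice 0.2–2.7, green foxtail 0.5–3.2, soybean primary leaf) with wettable powder or emulsifiable concentrate formulations. Spray volume was 1,000 L/ha water containing 0.1 vol% spreader, at prescribed active-ingredient rates. Growth inhibition (0 = untreated, 100 = complete kill) was scored visually on day 14.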

[12] = test system: crabgrass (Digitaria sanquinalis L.); assay: as above
In short: (§3)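 Using a small sprayer, formulated compound in water (0.1 vol % surfactant, 1,000 L/ha) was applied to seedlings grown from seed in upland soil. Fourteen days on, growth state was observed and expressed as percent inhibition from 0 to 100.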

[13] = test system: barnyardgrass (Echinochloa crus-qalli L.); assay: as above
In short: as §3

[14] = test system: italian ryegrass (Lolium multiflorum Lam.); assay: as above
In short: as §3

corn (Zea mays L.) [15] = assay: as above
In short: as §3

[16] = test system: green foxtail (Setaria viridis L.); assay: as above
In short: as §2

[17] = test system: redroot pigweed (Amaranthus retroflexus L.); assay: as above
In short: as §3

[18] = test system: soybean (Glycine max Merr.); assay: as above
In short: as §2

[19] = test system: wheat (Triticum aestivum L.); assay: as above
In short: as §3

[20] = test system: wild oat (Avena fatua L.); assay: as above
In short: as §2

## CCc1ccc(Oc2nc3cc(Cl)ccc3o2)cc1-c1c(O)c(C)nn(C)c1=O [Compound 2-161]
Rice (Oryza sativa L.) [1]
  Growth inhibition rate (%) Rice: 0%
[2]
  Growth inhibition rate (%) Prickly sida: 0%
[3]
  Growth inhibition rate (%) Barnyardgrass: 98%
[4]
  Growth inhibition rate (%) Crabgrass: 0%
Corn (Zea mays L.) [5]
  Growth inhibition rate (%) Corn: 0%
[6]
  Growth inhibition rate (%) Green foxtail: 0%
[7]
  Growth inhibition rate (%) Redroot pigweed: 0%
[8]
  Growth inhibition rate (%) Soybean: 0%
[9]
  Growth inhibition rate (%) Velvetleaf: 0%
[10]
  Growth inhibition rate (%) Wheat: 0%
Rice (Oryza sativa L.) [11]
  Growth inhibition rate (%) Rice: 99%
[12]
  Growth inhibition rate (%) Crabgrass: 83%
[13]
  Growth inhibition rate (%) Barnyardgrass: 100%
[14]
  Growth inhibition rate (%) Italian ryegrass: 99%
Corn (Zea mays L.) [15]
  Growth inhibition rate (%) Corn: 90%
[16]
  Growth inhibition rate (%) Green foxtail: 100%
[17]
  Growth inhibition rate (%) Redroot pigweed: 40%
[18]
  Growth inhibition rate (%) Soybean: 0%
[19]
  Growth inhibition rate (%) Wheat: 85%
[20]
  Growth inhibition rate (%) Wild oat: 99%

## Cc1ccc(Oc2nc3ccc(Cl)cc3o2)cc1-c1c(O)cnn(C)c1=O [Compound 2-163]
Rice (Oryza sativa L.) [1]
  Growth inhibition rate (%) Rice: 20%
[2]
  Growth inhibition rate (%) Prickly sida: 0%
[3]
  Growth inhibition rate (%) Barnyardgrass: 98%
[4]
  Growth inhibition rate (%) Crabgrass: 98%
Corn (Zea mays L.) [5]
  Growth inhibition rate (%) Corn: 15%
[6]
  Growth inhibition rate (%) Green foxtail: 99%
[7]
  Growth inhibition rate (%) Redroot pigweed: 0%
[8]
  Growth inhibition rate (%) Soybean: 0%
[9]
  Growth inhibition rate (%) Velvetleaf: 0%
[10]
  Growth inhibition rate (%) Wheat: 20%
Rice (Oryza sativa L.) [11]
  Growth inhibition rate (%) Rice: 35%
[12]
  Growth inhibition rate (%) Crabgrass: 95%
[13]
  Growth inhibition rate (%) Barnyardgrass: 100%
[14]
  Growth inhibition rate (%) Italian ryegrass: 88%
Corn (Zea mays L.) [15]
  Growth inhibition rate (%) Corn: 80%
[16]
  Growth inhibition rate (%) Green foxtail: 100%
[17]
  Growth inhibition rate (%) Redroot pigweed: 0%
[18]
  Growth inhibition rate (%) Soybean: 35%
[19]
  Growth inhibition rate (%) Wheat: 10%
[20]
  Growth inhibition rate (%) Wild oat: 75%

## CC(=O)Oc1cnn(C)c(=O)c1-c1cc(Oc2nc3ccc(Cl)cc3o2)ccc1C [Compound 2-164]
Rice (Oryza sativa L.) [1]
  Growth inhibition rate (%) Rice: 0%
[2]
  Growth inhibition rate (%) Prickly sida: 0%
[3]
  Growth inhibition rate (%) Barnyardgrass: 50%
[4]
  Growth inhibition rate (%) Crabgrass: 98%
Corn (Zea mays L.) [5]
  Growth inhibition rate (%) Corn: 0%
[6]
  Growth inhibition rate (%) Green foxtail: 90%
[7]
  Growth inhibition rate (%) Redroot pigweed: 0%
[8]
  Growth inhibition rate (%) Soybean: 0%
[9]
  Growth inhibition rate (%) Velvetleaf: 0%
[10]
  Growth inhibition rate (%) Wheat: 0%
Rice (Oryza sativa L.) [11]
  Growth inhibition rate (%) Rice: 83%
[12]
  Growth inhibition rate (%) Crabgrass: 100%
[13]
  Growth inhibition rate (%) Barnyardgrass: 100%
[14]
  Growth inhibition rate (%) Italian ryegrass: 95%
Corn (Zea mays L.) [15]
  Growth inhibition rate (%) Corn: 90%
[16]
  Growth inhibition rate (%) Green foxtail: 100%
[17]
  Growth inhibition rate (%) Redroot pigweed: 0%
[18]
  Growth inhibition rate (%) Soybean: 40%
[19]
  Growth inhibition rate (%) Wheat: 10%
[20]
  Growth inhibition rate (%) Wild oat: 90%

## CCc1ccc(Oc2nc3ccccc3o2)cc1-c1c(O)c(C)nn(C)c1=O [Compound 2-165]
Rice (Oryza sativa L.) [1]
  Growth inhibition rate (%) Rice: 70%
[2]
  Growth inhibition rate (%) Prickly sida: 0%
[3]
  Growth inhibition rate (%) Barnyardgrass: 99%
[4]
  Growth inhibition rate (%) Crabgrass: 98%
Corn (Zea mays L.) [5]
  Growth inhibition rate (%) Corn: 0%
[6]
  Growth inhibition rate (%) Green foxtail: 99%
[7]
  Growth inhibition rate (%) Redroot pigweed: 0%
[8]
  Growth inhibition rate (%) Soybean: 0%
[9]
  Growth inhibition rate (%) Velvetleaf: 0%
[10]
  Growth inhibition rate (%) Wheat: 0%
Rice (Oryza sativa L.) [11]
  Growth inhibition rate (%) Rice: 25%
[12]
  Growth inhibition rate (%) Crabgrass: 70%
[13]
  Growth inhibition rate (%) Barnyardgrass: 100%
[14]
  Growth inhibition rate (%) Italian ryegrass: 0%
Corn (Zea mays L.) [15]
  Growth inhibition rate (%) Corn: 35%
[16]
  Growth inhibition rate (%) Green foxtail: 88%
[17]
  Growth inhibition rate (%) Redroot pigweed: 0%
[18]
  Growth inhibition rate (%) Soybean: 25%
[19]
  Growth inhibition rate (%) Wheat: 0%
[20]
  Growth inhibition rate (%) Wild oat: 0%

## CCc1ccc(Oc2nc3ccccc3o2)cc1-c1c(O)c(C)nn(C)c1=O [Compound 2-166]
Rice (Oryza sativa L.) [1]
  Growth inhibition rate (%) Rice: 70%
[2]
  Growth inhibition rate (%) Prickly sida: 0%
[3]
  Growth inhibition rate (%) Barnyardgrass: 99%
[4]
  Growth inhibition rate (%) Crabgrass: 95%
Corn (Zea mays L.) [5]
  Growth inhibition rate (%) Corn: 0%
[6]
  Growth inhibition rate (%) Green foxtail: 100%
[7]
  Growth inhibition rate (%) Redroot pigweed: 0%
[8]
  Growth inhibition rate (%) Soybean: 0%
[9]
  Growth inhibition rate (%) Velvetleaf: 0%
[10]
  Growth inhibition rate (%) Wheat: 0%
Rice (Oryza sativa L.) [11]
  Growth inhibition rate (%) Rice: 88%
[12]
  Growth inhibition rate (%) Crabgrass: 88%
[13]
  Growth inhibition rate (%) Barnyardgrass: 100%
[14]
  Growth inhibition rate (%) Italian ryegrass: 99%
Corn (Zea mays L.) [15]
  Growth inhibition rate (%) Corn: 80%
[16]
  Growth inhibition rate (%) Green foxtail: 100%
[17]
  Growth inhibition rate (%) Redroot pigweed: 20%
[18]
  Growth inhibition rate (%) Soybean: 30%
[19]
  Growth inhibition rate (%) Wheat: 10%
[20]
  Growth inhibition rate (%) Wild oat: 40%

## CCn1ncc(OC(C)=O)c(-c2cc(Oc3nc4ccc(Cl)cc4o3)ccc2C)c1=O [Compound 2-169]
Rice (Oryza sativa L.) [1]
  Growth inhibition rate (%) Rice: 0%
[2]
  Growth inhibition rate (%) Prickly sida: 0%
[3]
  Growth inhibition rate (%) Barnyardgrass: 70%
[4]
  Growth inhibition rate (%) Crabgrass: 98%
Corn (Zea mays L.) [5]
  Growth inhibition rate (%) Corn: 0%
[6]
  Growth inhibition rate (%) Green foxtail: 98%
[7]
  Growth inhibition rate (%) Redroot pigweed: 0%
[8]
  Growth inhibition rate (%) Soybean: 0%
[9]
  Growth inhibition rate (%) Velvetleaf: 0%
[10]
  Growth inhibition rate (%) Wheat: 0%
Rice (Oryza sativa L.) [11]
  Growth inhibition rate (%) Rice: 83%
[12]
  Growth inhibition rate (%) Crabgrass: 100%
[13]
  Growth inhibition rate (%) Barnyardgrass: 100%
[14]
  Growth inhibition rate (%) Italian ryegrass: 85%
Corn (Zea mays L.) [15]
  Growth inhibition rate (%) Corn: 98%
[16]
  Growth inhibition rate (%) Green foxtail: 100%
[17]
  Growth inhibition rate (%) Redroot pigweed: 0%
[18]
  Growth inhibition rate (%) Soybean: 40%
[19]
  Growth inhibition rate (%) Wheat: 85%
[20]
  Growth inhibition rate (%) Wild oat: 88%

## Cc1ccc(Oc2nc3ccc(Cl)cc3o2)cc1-c1c(O)cnn(C(C)C)c1=O [Compound 2-171]
Rice (Oryza sativa L.) [1]
  Growth inhibition rate (%) Rice: 0%
[2]
  Growth inhibition rate (%) Prickly sida: 0%
[3]
  Growth inhibition rate (%) Barnyardgrass: 65%
[4]
  Growth inhibition rate (%) Crabgrass: 30%
Corn (Zea mays L.) [5]
  Growth inhibition rate (%) Corn: 0%
[6]
  Growth inhibition rate (%) Green foxtail: 75%
[7]
  Growth inhibition rate (%) Redroot pigweed: 0%
[8]
  Growth inhibition rate (%) Soybean: 0%
[9]
  Growth inhibition rate (%) Velvetleaf: 0%
[10]
  Growth inhibition rate (%) Wheat: 0%
Rice (Oryza sativa L.) [11]
  Growth inhibition rate (%) Rice: 25%
[12]
  Growth inhibition rate (%) Crabgrass: 90%
[13]
  Growth inhibition rate (%) Barnyardgrass: 99%
[14]
  Growth inhibition rate (%) Italian ryegrass: 30%
Corn (Zea mays L.) [15]
  Growth inhibition rate (%) Corn: 80%
[16]
  Growth inhibition rate (%) Green foxtail: 93%
[17]
  Growth inhibition rate (%) Redroot pigweed: 0%
[18]
  Growth inhibition rate (%) Soybean: 30%
[19]
  Growth inhibition rate (%) Wheat: 0%
[20]
  Growth inhibition rate (%) Wild oat: 0%

## CC(=O)Oc1cnn(C(C)C)c(=O)c1-c1cc(Oc2nc3ccc(Cl)cc3o2)ccc1C [Compound 2-172]
Rice (Oryza sativa L.) [1]
  Growth inhibition rate (%) Rice: 0%
[2]
  Growth inhibition rate (%) Prickly sida: 0%
[3]
  Growth inhibition rate (%) Barnyardgrass: 60%
[4]
  Growth inhibition rate (%) Crabgrass: 30%
Corn (Zea mays L.) [5]
  Growth inhibition rate (%) Corn: 0%
[6]
  Growth inhibition rate (%) Green foxtail: 20%
[7]
  Growth inhibition rate (%) Redroot pigweed: 0%
[8]
  Growth inhibition rate (%) Soybean: 0%
[9]
  Growth inhibition rate (%) Velvetleaf: 0%
[10]
  Growth inhibition rate (%) Wheat: 0%
Rice (Oryza sativa L.) [11]
  Growth inhibition rate (%) Rice: 30%
[12]
  Growth inhibition rate (%) Crabgrass: 98%
[13]
  Growth inhibition rate (%) Barnyardgrass: 100%
[14]
  Growth inhibition rate (%) Italian ryegrass: 35%
Corn (Zea mays L.) [15]
  Growth inhibition rate (%) Corn: 98%
[16]
  Growth inhibition rate (%) Green foxtail: 99%
[17]
  Growth inhibition rate (%) Redroot pigweed: 0%
[18]
  Growth inhibition rate (%) Soybean: 40%
[19]
  Growth inhibition rate (%) Wheat: 10%
[20]
  Growth inhibition rate (%) Wild oat: 40%

## Cc1ccc(Oc2nc3cc(Cl)ccc3o2)cc1-c1c(O)cnn(C)c1=O [Compound 2-173]
Rice (Oryza sativa L.) [1]
  Growth inhibition rate (%) Rice: 20%
[2]
  Growth inhibition rate (%) Prickly sida: 0%
[3]
  Growth inhibition rate (%) Barnyardgrass: 65%
[4]
  Growth inhibition rate (%) Crabgrass: 80%
Corn (Zea mays L.) [5]
  Growth inhibition rate (%) Corn: 10%
[6]
  Growth inhibition rate (%) Green foxtail: 10%
[7]
  Growth inhibition rate (%) Redroot pigweed: 0%
[8]
  Growth inhibition rate (%) Soybean: 0%
[9]
  Growth inhibition rate (%) Velvetleaf: 0%
[10]
  Growth inhibition rate (%) Wheat: 0%
Rice (Oryza sativa L.) [11]
  Growth inhibition rate (%) Rice: 85%
[12]
  Growth inhibition rate (%) Crabgrass: 95%
[13]
  Growth inhibition rate (%) Barnyardgrass: 99%
[14]
  Growth inhibition rate (%) Italian ryegrass: 90%
Corn (Zea mays L.) [15]
  Growth inhibition rate (%) Corn: 65%
[16]
  Growth inhibition rate (%) Green foxtail: 88%
[17]
  Growth inhibition rate (%) Redroot pigweed: 0%
[18]
  Growth inhibition rate (%) Soybean: 0%
[19]
  Growth inhibition rate (%) Wheat: 75%
[20]
  Growth inhibition rate (%) Wild oat: 35%
